Series [1] deals with CYP3A4. Also noted: method as in PMID 29753067. The settings on record: cited from earlier work.
Series [2] deals with T1, CYP3A4 (Homo sapiens, UniProt P08684).
T1 construct: tissue Corning Life Sciences; host or cells: pooled human liver microsomes, 150 donors
Description: Inhibition of CYP3A4-catalyzed testosterone 6β-hydroxylation. The series is classed as biochemical. The settings on record: data not shown. From the text:
The reversible inhibition of SPN-mediated CYP3A4 activity was less consistent with the published literature. […] They only focused on the in vitro inhibitory potentials of several flavonoids against CYP3A4 activity. To the best of our knowledge, to date, bufalin has not been used as the in vitro probe substrate for the CYP3A4 activity, and the reference material of 5′-hydroxybufalin is not commercially available. Because of the presence of several binding regions within the CYP3A4 active site, multiple probe substrates are often used for in vitro CYP3A4-mediated drug–drug interaction studies, including midazolam, nifedipine, and testosterone. […] Altogether, the in vitro CYP3A4 inhibition by SPN seemed to be substrate-specific.

A further series relates to Caco-2 cells. Description: Bi-directional Caco-2 cell permeability. It counts as in vitro ADME. The protocol:
Caco-2 cell permeability was assessed to predict the oral absorption of SPN. Cell culture and transport studies were performed as previously described. Briefly, for the bi-directional transport studies, the cells were seeded at a density of 1 × 10^5 cells/well, and the cell medium was replaced until they formed confluent monolayers. On the 25th day, the cell monolayers were washed with pre-warmed HBSS buffer. […] Before the experiment, the integrity of the cell monolayers was evaluated by measuring the transepithelial electrical resistance using a Millicell ohmmeter. After 2 h incubation at 37 °C, samples were withdrawn from both sides, respectively. All samples were stored at −80 °C until LC-MS/MS analysis, and all experiments were performed in triplicate.
The apparent permeability coefficient (Papp) was calculated using the following equation. Papp = (Vr/C0) × (1/A) × ([Drug]/t) where, Vr is the volume of medium in the receiver chamber, C0 is the donor compartment concentration at time zero, A is the area of the cell monolayer, t is the treatment time of the drug, and [Drug] is the drug concentration in the receiver chamber.

Another series addresses T2, CYP2B6 (Homo sapiens, UniProt P20813).
T2 construct: tissue Corning Life Sciences; host or cells: pooled human liver microsomes, 150 donors
T2 sequence (P20813 1-491): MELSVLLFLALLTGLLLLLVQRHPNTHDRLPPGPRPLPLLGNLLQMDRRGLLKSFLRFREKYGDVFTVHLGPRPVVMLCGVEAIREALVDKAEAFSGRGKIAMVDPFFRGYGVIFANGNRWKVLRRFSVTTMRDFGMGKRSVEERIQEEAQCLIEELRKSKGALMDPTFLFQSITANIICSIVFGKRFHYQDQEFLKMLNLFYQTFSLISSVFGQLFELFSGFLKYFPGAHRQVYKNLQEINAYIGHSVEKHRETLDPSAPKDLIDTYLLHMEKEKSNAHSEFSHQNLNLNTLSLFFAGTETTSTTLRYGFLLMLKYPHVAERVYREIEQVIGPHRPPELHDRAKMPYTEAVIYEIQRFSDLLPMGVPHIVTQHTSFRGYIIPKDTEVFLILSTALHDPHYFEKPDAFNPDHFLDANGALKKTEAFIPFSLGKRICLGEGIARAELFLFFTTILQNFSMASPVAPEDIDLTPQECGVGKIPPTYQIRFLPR
Description: Reversible CYP2B6 inhibition, cocktail assay (bupropion hydroxylase) in human liver microsomes. The series is classed as biochemical. The procedure:
(§1) The inhibitory effects of SPN on CYP1A2, CYP2A6, CYP2B6, CYP2C8, CYP2C9, CYP2C19, CYP2D6, CYP2E1, and CYP3A4 were evaluated in pooled human liver microsomes through the use of specific CYP probe substrates (cocktail assay), as previously described with a slight modification. Concentrations of each CYP probe in Table 1 were used close to their reported Km values.
Briefly, a 90-µL incubation mixture, including pooled human liver microsomes (final concentration 0.1 mg/mL), 50 mM phosphate buffer (pH 7.4), each CYP-probe substrate cocktail set, and SPN (0–50 μM), was pre-incubated for 5 min at 37 °C. SPN was dissolved in methanol and spiked into the incubation mixture to a final concentration of 0.5% methanol. […]
(§2) The IC50 values were calculated via nonlinear least-squares regression analysis from logarithmic plots of inhibitor concentration versus percentage of activity remaining after inhibition, using SigmaPlot (ver. 14.0; Systat Software Inc, Chicago, IL, USA). The Ki values were determined from the equations for a single substrate single inhibitor model and the software available in the SigmaPlot Enzyme Kinetics module. Competitive, non-competitive, uncompetitive, or mixed inhibition models were evaluated and ranked according to the best fit based on Akaike Information Criterion (AIC) values. […]
In general terms: Liver microsomes are vesicles of endoplasmic reticulum, rich in cytochrome P450 enzymes.

The target of the next series is T3, CYP2E1 (Homo sapiens, UniProt P05181).
T3 construct: tissue Corning Life Sciences; host or cells: pooled human liver microsomes, 150 donors
T3 sequence (P05181 whole entry): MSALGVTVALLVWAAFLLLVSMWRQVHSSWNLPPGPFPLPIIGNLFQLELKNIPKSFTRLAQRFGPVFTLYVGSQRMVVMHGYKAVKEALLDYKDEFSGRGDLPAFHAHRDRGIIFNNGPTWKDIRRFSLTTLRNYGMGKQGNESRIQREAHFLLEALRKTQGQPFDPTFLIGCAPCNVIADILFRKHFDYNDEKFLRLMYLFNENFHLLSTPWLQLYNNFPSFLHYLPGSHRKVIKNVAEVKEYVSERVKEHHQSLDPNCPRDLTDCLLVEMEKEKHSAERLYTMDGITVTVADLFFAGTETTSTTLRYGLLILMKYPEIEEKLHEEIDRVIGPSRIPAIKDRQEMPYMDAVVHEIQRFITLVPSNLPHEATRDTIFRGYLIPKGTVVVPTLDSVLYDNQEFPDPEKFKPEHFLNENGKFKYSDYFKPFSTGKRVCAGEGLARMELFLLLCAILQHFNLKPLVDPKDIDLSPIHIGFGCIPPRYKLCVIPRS
The experiment in a line: Reversible CYP2E1 inhibition, cocktail assay (chlorzoxazone 6-hydroxylase) in human liver microsomes. The series is classed as biochemical. The procedure:
as §1
Briefly, a 90-µL incubation mixture, including pooled human liver microsomes (final concentration 0.1 mg/mL), 50 mM phosphate buffer (pH 7.4), each CYP-probe substrate cocktail set, and SPN (0–50 μM), was pre-incubated for 5 min at 37 °C. SPN was dissolved in methanol and spiked into the incubation mixture to a final concentration of 0.5% methanol. All P450-selective substrates (except coumarin due to solubility) were dissolved in methanol and serially diluted with methanol to the required concentrations, and the organic solvent was subsequently evaporated under a gentle stream of N2 gas to minimize the effects of organic solvents on CYP activities. On the other hand, coumarin dissolved in 50 mM phosphate buffer (pH 7.4) was directly added into the mixed tube. The reaction was initiated by adding 10-µL aliquot of NADPH-generating system (1.3 mM NADP^+, 3.3 mM glucose 6-phosphate, 3.3 mM MgCl2, and 0.4 unit/mL glucose-6-phosphate dehydrogenase) before 15 min incubation at 37 °C in a shaking water bath. […]
as §2

Setting [3] is: at the highest tested concentration (50 μM).

Each structure is given as a SMILES string.

T1 sequence (P08684 whole entry): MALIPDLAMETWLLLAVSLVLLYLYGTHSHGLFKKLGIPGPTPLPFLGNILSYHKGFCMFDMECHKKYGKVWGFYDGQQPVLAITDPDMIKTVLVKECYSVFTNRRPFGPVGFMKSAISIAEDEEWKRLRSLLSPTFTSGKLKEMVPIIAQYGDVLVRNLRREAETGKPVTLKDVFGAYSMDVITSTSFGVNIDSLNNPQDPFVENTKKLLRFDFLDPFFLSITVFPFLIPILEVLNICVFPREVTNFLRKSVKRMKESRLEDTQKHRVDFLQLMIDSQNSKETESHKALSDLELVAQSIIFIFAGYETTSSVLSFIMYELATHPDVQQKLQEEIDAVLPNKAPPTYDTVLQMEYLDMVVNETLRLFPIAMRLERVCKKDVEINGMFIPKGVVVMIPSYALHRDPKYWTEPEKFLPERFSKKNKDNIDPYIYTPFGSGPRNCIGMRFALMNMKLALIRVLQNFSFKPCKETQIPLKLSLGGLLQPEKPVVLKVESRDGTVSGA

With `CC(C)=CCc1cc([C@@H]2CC(=O)c3ccc(O)c(CC=C(C)C)c3O2)cc(CC=C(C)C)c1O` [SPN, (‒)-Sophoranone], the half-maximal inhibitory concentration (IC50) (usually the concentration that gives 50% inhibition) with CYP3A4 [1] (range over other CYP3A4 substrates) is 5.62 to 38.4 µM; on CYP3A4 [2], 31.5 ± 4.79 µM; at CYP2B6 (human liver microsomes 0.1 mg/mL, cocktail assay, bupropion probe, n = 3), over 50 µM; at CYP2E1 (human liver microsomes 0.1 mg/mL, cocktail assay, chlorzoxazone probe, n = 3, read-out: IC50 Values, CYP2E1), over 50 µM. The Ki (commonly the dissociation constant of the complex between target and ligand, obtained from inhibition or displacement) with CYP3A4 [1] (read-out: Ki, CYP3A4-catalyzed bufalin 5′-hydroxylation) is 2.17 ± 0.29 µM. For the same compound, the “Papp A-to-B as % of propranolol Papp” value with Caco-2 cells (10 μM) turned out to be 0.429%; in the series with Caco-2 cells (50 μM), 0.642%. Besides, the “residual enzyme activity, CYP2B6” value on CYP2B6 (setting [3]) is “greater than 80%”. For the same compound, the “residual enzyme activity, CYP2E1” value on CYP2E1 (setting [3]) is listed as “greater than 80%”.

These data come from PMC7238241, “Lack of Correlation between In Vitro and In Vivo Studies on the Inhibitory Effects of (‒)-Sophoranone on CYP2C9 Is Attributable to Low Oral Absorption and Extensive Plasma Protein Binding of (‒)-Sophoranone” (Pharmaceutics, 2020).
